# Source: article PMC12718081 (ACS Infectious Diseases, 2025)
# “Also recorded” adds a separate entry of the source. Read-outs that look alike come from different tables or passages of the source.
# Experiments:
# Eg.TRPMPZQ = Eg.TRPMPZQ (Echinococcus granulosus, UniProt W6UVV9); test: cell-based; conditions: HEK293, Ca2+ reporter, mean ± standard deviation; read-out: Bmax, Eg.TRPMPZQ activation
# S. mansoni schistosomula = test: Roboworm high-content screening assay on schistosomula (motility and phenotype scores); assay type: cell-based, Schistosoma mansoni; conditions: 72 h
# Protocol: All PZQ derivatives were synthesized in the racemic form and evaluated as such. The compounds were initially screened at 10 μM against S. mansoni schistosomula using the Roboworm high-content screening assay , and were declared hits or nonhits based on their effect on parasites’ motility and phenotype scores after 72 h of incubation. As none of the compounds were considered hits at this concentration, we performed a titration from 6.25 to 50 μM (Figure S27).
# DMSO was included as a negative control. Compounds were considered hits if both their motility and phenotype scores were lower than −0.35 and −0.15, respectively (region delimited by the dashed lines). In red, PZQ analogues selected for further analysis.
# For the collection of schistosomula, B. glabrata snails infected with S. mansoni were shed for 2 h under light at 26 °C. Cercariae were collected, mechanically transformed into schistosomula as previously described.
# DMSO (0.625%, v/v) was included as a negative control. Z′ values for the assay were calculated to be 0.542 for phenotype and 0.361 for motility. […]
# Auranofin (AUR) was included at 10 µM as positive control. DMSO was included as a negative control. Compounds were considered hits if both their motility and phenotype scores were lower than -0.35 and -0.15, respectively (region delimited by the […]
# [1] = system: adult schistosomes (male and female worms); test: Adult worm ex vivo high-content image-based motility assay; assay type: cell-based, Schistosoma mansoni
# Protocol: Adult schistosomes’ motility was determined using a high-content assay previously developed by our group, , with images analyzed in CellProfiler software. More details are provided in the Supporting Information.
# (§1) Adult worm ex-vivo high-content assay
# (§2) “Area” and “False Negative Rate” from the MeasureObjectSizeShape and MeasureObjectOverlap modules, respectively. These measurements were then modeled by a multilevel generalized linear statistical model. The effects of the experimental treatments on […]
# (§3) The half-maximal inhibitory
# (§4) Windows (GraphPad Software, Boston, MA, USA; www.graphpad.com). […]
# with DMSO as a negative control.
# Sm.TRPMPZQ = test: Ca2+ reporter assay in antagonist mode (block of PZQ activation of Sm.TRPMPZQ); assay type: cell-based, Schistosoma mansoni; conditions: preincubation 1 nM-100 μM for 10 min, data not shown
# Protocol: (§5) The Ca^2+ reporter assay was performed using a Fluorescence Imaging Plate Reader (FLIPR) system, as described in the Supporting Information.
# as §1, §2, §3, §4
# (§6) with DMSO as a negative control. […]
# (§7) reader. […] The fluorescence
# (§8) Untransfected HEK293 cells were used as a control.
# (§9) 10% fetal bovine serum (FBS). […]
# (§10) atmosphere containing 5% CO₂. Following incubation, the growth medium was removed and […]
# buffer containing 2.5 mM probenecid in HBSS (with Ca²⁺ and Mg²⁺), 20 mM HEPES, 0.3% BSA (Sigma, A7030), and 0.03% L-ascorbic acid (Sigma). Cells were incubated for 40 minutes at 37 °C and subsequently for 20 minutes at room temperature. A total of seven PZQ derivatives were tested, using racemic PZQ included as a positive control on each assay plate. Drug dilutions were prepared in assay buffer without dye and probenecid and dispensed into separate flat-bottom 384-well plates. Calcium flux measurements were performed at room temperature using a […]
# (§11) instrument (Molecular Devices). Baseline fluorescence was recorded for 20 seconds, followed by the addition of 5 µL of each drug solution, after which fluorescence was measured continuously for 250 seconds. […]
# schistosomula after 72h of incubation using the Roboworm high-content screening assay. Auranofin (AUR) was included at 10 µM as positive control. DMSO was included as a negative control. Compounds were considered hits if both their motility and phenotype scores were lower than -0.35 and -0.15, respectively (region delimited by the […]
# (1 picture or pasted object on this page, not shown here)
# Sm.TRPMPZQ (wild-type) = Sm.TRPMPZQ (wild-type) (Schistosoma mansoni, UniProt A0A5K4F0X5); test: Ca2+ reporter (FLIPR) activation assay, wild-type Sm.TRPMPZQ in HEK293 cells; assay type: cell-based
# Protocol: The Ca^2+ reporter assay was performed using a Fluorescence Imaging Plate Reader (FLIPR) system, as described in the Supporting Information. […]
# as §3, §4, §6, §7, §8, §9, §10
# (§12) buffer containing 2.5 mM probenecid in HBSS (with Ca²⁺ and Mg²⁺), 20 mM HEPES, 0.3% BSA (Sigma, A7030), and 0.03% L-ascorbic acid (Sigma). Cells were incubated for 40 minutes at 37 °C and subsequently for 20 minutes at room temperature. […]
# prepared in assay buffer without dye and probenecid and dispensed into separate flat-bottom 384-well plates. Calcium flux measurements were performed at room temperature using a […]
# as §11
# Sm.TRPMPZQ L1515A mutant = test: Ca2+ reporter activation assay, Sm.TRPMPZQ point mutant L1515A; assay type: cell-based, Schistosoma mansoni; conditions: 100 μM
# Protocol: This trend likely indicates a similar binding mode.
# The colored cells represent the range of EC50 values for each compound based on their ability to activate the channel.
# as §5, §1, §2, §3, §4, §6, §7, §8, §9, §10, §12, §11
# S. mansoni = system: S. mansoni; design: method as in numbers not given; conditions: ref numbers not given, cited from earlier work
# juvenile schistosomes = test: Microscopy analysis of juvenile morphology and motility (viability score 0-3); conditions: 72 h
# [2] = system: juvenile schistosomes (21 days p.i.); test: XTT juvenile viability assay; assay type: cell-based, Schistosoma mansoni; conditions: 48 h
# Sm.TRPMMCLZ = system: Sm.TRPMMCLZ; design: method as in number not given; conditions: background statement; ref number not given; cited from earlier work
# Fh.TRPMPZQ = system: Fh.TRPMPZQ; design: method as in number not given; conditions: background statement; ref number not given; cited from earlier work
# Sequence of Sm.TRPMPZQ (wild-type) (A0A5K4F0X5 entry or part of it): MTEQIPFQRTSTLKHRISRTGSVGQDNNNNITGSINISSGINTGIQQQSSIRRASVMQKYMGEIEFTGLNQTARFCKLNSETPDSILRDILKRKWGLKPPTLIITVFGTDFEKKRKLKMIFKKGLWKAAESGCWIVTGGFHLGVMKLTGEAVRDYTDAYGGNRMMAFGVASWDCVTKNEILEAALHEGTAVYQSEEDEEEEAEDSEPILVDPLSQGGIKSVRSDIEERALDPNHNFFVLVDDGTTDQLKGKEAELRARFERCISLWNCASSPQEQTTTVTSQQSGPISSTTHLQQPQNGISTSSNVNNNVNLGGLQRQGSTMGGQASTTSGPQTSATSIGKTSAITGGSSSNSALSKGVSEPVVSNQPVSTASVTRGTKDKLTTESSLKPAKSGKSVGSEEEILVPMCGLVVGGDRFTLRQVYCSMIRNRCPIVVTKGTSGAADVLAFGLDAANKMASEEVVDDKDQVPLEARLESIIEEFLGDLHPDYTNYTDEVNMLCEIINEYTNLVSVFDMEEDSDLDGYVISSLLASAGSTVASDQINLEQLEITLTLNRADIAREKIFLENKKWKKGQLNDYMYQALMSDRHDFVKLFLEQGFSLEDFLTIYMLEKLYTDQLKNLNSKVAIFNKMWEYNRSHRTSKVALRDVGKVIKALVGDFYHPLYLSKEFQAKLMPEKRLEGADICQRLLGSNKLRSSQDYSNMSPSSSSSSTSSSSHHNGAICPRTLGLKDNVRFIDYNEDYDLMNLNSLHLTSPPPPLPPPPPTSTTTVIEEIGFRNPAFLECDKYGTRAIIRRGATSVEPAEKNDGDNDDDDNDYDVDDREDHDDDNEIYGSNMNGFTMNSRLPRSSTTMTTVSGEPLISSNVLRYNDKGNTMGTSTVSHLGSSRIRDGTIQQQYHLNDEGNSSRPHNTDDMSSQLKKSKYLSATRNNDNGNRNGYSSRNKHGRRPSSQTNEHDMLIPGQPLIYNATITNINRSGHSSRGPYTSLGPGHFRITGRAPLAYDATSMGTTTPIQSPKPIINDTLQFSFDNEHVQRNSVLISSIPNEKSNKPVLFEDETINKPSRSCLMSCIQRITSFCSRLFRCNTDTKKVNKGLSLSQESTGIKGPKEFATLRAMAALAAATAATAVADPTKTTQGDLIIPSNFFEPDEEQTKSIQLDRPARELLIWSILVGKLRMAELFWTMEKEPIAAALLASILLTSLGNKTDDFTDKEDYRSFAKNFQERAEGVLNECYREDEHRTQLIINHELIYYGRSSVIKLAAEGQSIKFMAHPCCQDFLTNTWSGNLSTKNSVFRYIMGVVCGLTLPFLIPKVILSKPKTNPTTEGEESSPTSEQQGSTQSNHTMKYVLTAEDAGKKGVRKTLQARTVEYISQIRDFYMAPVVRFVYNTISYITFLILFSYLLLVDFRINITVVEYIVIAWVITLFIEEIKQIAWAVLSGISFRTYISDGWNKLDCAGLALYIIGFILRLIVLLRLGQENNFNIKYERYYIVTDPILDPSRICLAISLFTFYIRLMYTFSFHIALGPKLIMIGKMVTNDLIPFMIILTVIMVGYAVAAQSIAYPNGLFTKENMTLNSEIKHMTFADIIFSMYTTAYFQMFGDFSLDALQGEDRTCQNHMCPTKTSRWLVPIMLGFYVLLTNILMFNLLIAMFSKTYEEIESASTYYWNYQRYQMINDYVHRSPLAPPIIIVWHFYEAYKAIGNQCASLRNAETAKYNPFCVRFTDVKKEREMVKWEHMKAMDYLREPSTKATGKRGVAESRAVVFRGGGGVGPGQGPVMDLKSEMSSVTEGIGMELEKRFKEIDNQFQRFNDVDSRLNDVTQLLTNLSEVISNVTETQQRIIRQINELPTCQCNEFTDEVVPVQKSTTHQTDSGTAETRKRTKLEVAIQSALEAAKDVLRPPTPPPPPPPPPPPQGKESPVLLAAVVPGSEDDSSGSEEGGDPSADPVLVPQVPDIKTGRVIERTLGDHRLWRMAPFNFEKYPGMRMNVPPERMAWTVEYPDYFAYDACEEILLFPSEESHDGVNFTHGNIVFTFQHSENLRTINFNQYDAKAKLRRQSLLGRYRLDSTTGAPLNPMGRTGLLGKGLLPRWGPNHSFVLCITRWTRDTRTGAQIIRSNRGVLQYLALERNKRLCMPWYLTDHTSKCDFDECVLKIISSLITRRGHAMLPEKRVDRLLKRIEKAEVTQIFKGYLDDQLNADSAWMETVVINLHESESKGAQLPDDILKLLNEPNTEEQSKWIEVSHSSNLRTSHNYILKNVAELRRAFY
# Sequence of Eg.TRPMPZQ (W6UVV9 entry or part of it): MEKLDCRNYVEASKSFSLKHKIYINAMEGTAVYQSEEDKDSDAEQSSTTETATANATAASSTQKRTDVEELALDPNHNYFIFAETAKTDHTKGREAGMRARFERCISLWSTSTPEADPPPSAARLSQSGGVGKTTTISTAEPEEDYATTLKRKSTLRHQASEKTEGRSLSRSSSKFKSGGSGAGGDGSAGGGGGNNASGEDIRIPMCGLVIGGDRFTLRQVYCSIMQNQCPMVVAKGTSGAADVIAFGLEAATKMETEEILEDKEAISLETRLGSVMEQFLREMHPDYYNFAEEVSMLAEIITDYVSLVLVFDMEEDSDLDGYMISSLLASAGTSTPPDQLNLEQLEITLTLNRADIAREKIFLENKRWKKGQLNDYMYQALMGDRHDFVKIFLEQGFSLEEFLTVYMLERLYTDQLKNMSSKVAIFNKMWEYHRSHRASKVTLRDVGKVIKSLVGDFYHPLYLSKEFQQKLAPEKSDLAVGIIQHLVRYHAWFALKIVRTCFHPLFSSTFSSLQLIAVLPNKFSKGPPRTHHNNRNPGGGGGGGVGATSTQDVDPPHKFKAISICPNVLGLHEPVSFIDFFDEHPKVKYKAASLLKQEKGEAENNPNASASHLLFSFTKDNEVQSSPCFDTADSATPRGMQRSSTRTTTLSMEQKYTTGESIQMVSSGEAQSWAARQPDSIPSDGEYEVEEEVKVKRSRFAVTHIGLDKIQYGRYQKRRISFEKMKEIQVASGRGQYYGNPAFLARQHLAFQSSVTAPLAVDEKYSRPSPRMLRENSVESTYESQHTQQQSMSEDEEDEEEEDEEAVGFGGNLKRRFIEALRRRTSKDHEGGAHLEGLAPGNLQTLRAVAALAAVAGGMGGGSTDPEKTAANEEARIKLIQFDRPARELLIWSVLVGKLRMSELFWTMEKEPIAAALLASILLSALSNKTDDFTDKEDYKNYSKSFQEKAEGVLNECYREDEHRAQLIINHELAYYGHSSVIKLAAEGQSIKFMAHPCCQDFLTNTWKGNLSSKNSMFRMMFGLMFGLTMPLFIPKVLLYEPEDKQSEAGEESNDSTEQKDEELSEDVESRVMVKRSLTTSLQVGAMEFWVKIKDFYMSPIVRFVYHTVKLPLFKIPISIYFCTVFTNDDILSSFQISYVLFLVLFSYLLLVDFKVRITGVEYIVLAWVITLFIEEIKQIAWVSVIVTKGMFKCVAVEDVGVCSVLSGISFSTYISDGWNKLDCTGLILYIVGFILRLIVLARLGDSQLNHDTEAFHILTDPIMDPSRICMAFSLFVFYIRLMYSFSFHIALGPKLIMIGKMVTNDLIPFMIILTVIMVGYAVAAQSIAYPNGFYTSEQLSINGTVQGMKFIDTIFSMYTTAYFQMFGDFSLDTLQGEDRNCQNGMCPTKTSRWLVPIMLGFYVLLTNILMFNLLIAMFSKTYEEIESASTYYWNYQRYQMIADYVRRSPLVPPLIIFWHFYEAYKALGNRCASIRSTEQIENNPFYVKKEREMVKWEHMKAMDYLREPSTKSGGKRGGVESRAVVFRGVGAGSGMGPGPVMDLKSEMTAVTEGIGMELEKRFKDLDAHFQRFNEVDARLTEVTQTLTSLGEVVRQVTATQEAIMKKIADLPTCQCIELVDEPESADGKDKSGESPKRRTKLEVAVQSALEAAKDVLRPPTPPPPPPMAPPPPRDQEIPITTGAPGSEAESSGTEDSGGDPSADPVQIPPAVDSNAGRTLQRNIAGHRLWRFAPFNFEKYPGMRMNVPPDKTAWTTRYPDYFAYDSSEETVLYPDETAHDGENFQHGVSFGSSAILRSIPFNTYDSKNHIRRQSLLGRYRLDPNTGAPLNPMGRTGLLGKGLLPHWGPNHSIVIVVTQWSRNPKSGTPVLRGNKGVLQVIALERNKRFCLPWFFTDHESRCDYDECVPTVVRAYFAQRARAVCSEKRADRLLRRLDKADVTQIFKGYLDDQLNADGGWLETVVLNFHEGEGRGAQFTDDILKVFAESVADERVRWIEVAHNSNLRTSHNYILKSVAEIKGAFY
smiles,measurement,setting,value
O=C(C1CCCCC1)N1CC(=O)N2CCc3ccc(-n4cc(C5(O)CCCCC5)nn4)cc3C2C1 (stereo not drawn) [Compound 5d],Emax,Eg.TRPMPZQ,94 ± 4.08%
same,hit classification (motility and phenotype scores),"S. mansoni schistosomula; 50 μM, hit if motility < -0.35 and phenotype < -0.15",inactive
same,activity against adult worms,[1]; data not shown,inactive
same,block of PZQ activation of Sm.TRPMPZQ (antagonist mode),Sm.TRPMPZQ,failed to impact subsequent responses to PZQ
same,"Bmax, wild-type Sm.TRPMPZQ activation",Sm.TRPMPZQ (wild-type),No activity
same,EC50 for wild-type Sm.TRPMPZQ activation,Sm.TRPMPZQ (wild-type); 0.001 to 100 μM,failed to activate; also recorded: No activity
same,activation of Sm.TRPMPZQ mutant form L1515A,Sm.TRPMPZQ L1515A mutant,activated
"O=C(C1CCCCC1)N1CC(=O)N2CCc3ccccc3C2C1 (stereo not drawn) [PZQ, Praziquantel, reference compound]",hit classification (motility and phenotype scores),S. mansoni schistosomula; 6.25 μM,not classified as a hit
same,in vitro potency against adult worms,S. mansoni; S. mansoni adults,0.16 to 0.75 µM
same,in vitro potency against schistosomula,S. mansoni; S. mansoni schistosomula,1.3 to 4.8 µM
same,EC50,"[1]; Schistosoma mansoni, 0 h, male adult worms, 0 h (immediately after addition), single experiment or geometric mean, read-out: Male worm motility inhibition (EC50)",280 nM
same,EC50,"[1]; Schistosoma mansoni, 0 h, male, 0 h, individual experiments, read-out: Male worm motility inhibition (EC50), values of independent experiments",300 nM
same,EC50,"[1]; Schistosoma mansoni, 24 h, male adult worms, 24 h, single experiment or geometric mean, read-out: Male worm motility inhibition (EC50)",250 nM
same,EC50,"[1]; Schistosoma mansoni, 24 h, male, 24 h, individual experiments, read-out: Male worm motility inhibition (EC50), values of independent experiments",220 nM
same,EC50,"[1]; Schistosoma mansoni, 48 h, male adult worms, 48 h, single experiment or geometric mean, read-out: Male worm motility inhibition (EC50)",250 nM
same,EC50,"[1]; Schistosoma mansoni, 48 h, male, 48 h, individual experiments, read-out: Male worm motility inhibition (EC50), values of independent experiments",270 nM
same,EC50,"[1]; Schistosoma mansoni, 72 h, male adult worms, 72 h, single experiment or geometric mean, read-out: Male worm motility inhibition (EC50)",160 nM
same,EC50,"[1]; Schistosoma mansoni, 72 h, male, 72 h, individual experiments, read-out: Male worm motility inhibition (EC50), values of independent experiments",160 nM
same,EC50,"[1]; Schistosoma mansoni, male, 0-72 h, read-out: EC50 against male adult worms (motility), span over incubation times",~200 nM
same,EC50,"[1]; male, 48 h, individual experiments, listed as PZQ (1), read-out: Male worm motility inhibition (EC50), values of independent experiments",240 nM
same,EC50,"[1]; male, 72 h, individual experiments, listed as PZQ (1), read-out: Male worm motility inhibition (EC50), values of independent experiments",170 nM
same,number of juvenile worms with viability score 0,"juvenile schistosomes; 10 μM, Table S1",56
same,number of juvenile worms with viability score 1,"juvenile schistosomes; 10 μM, Table S1",12
same,number of juvenile worms with viability score 2,"juvenile schistosomes; 10 μM, Table S1",27
same,number of juvenile worms with viability score 3,"juvenile schistosomes; 10 μM, Table S1",14
same,viability at 10 µM,"juvenile schistosomes; Schistosoma mansoni, read-out: Relative frequency of viability score 3",12.8%
same,parasite metabolic activity compared to the DMSO control group (XTT),[2]; 100 μM,significantly decreased
same,viability at 100 µM,"[2]; Schistosoma mansoni, mean ± SD, read-out: juvenile worm viability (XTT, % residual viability)",71.5%
same,activation of Sm.TRPMMCLZ,Sm.TRPMMCLZ,does not activate
same,activation of Fh.TRPMPZQ,Fh.TRPMPZQ,does not activate
